23 compounds from patent US10968203B2, “Pyrimidinyl-pyridyloxy-naphthyl compounds and methods of treating IRE1-related diseases and disorders” (Genentech, Inc., priority 2017, dated 2021) can be followed below.

This assay has as its system XBP1s-luc 293 LUC. Kind of assay: cellular PD assay, XBP1s-LUC reporter (Example 903). In kind it is cell-based. As to conditions: read-out: XBP1s-luc 293 LUC (IC50). The method in brief:
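A luciferase fusion, in frame and expressed only when the XBP1 transcript is spliced, served as the readout of cellular IRE1α activity in an XBP1-Luc reporter line.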

Structures are written as SMILES. Counter-ions that a name gives are not always drawn. Like-named read-outs stand apart in the source and are kept apart here.

A word on the IC50: it is the concentration that gives 50% inhibition. In the case of `Cc1ccc2c(NC(=O)[C@H]3CC34CCC4)cccc2c1Oc1ncccc1-c1ccnc(N[C@H]2CCCNC2)n1` (single isomer, unassigned) [Example 339], for the setting “Table 1”, the IC50 stood at 0.137 µM. For `CO[C@H](C)CS(=O)(=O)Nc1c(F)ccc2c(Oc3ncccc3-c3ccnc(N[C@H]4CCCNC4)n3)c(C)ccc12` (single isomer, unassigned) [Example 394, hydrochloride], the IC50 (Table 2) amounted to 0.028 µM. As for `C=CS(=O)(=O)Nc1cccc2c(Oc3ncccc3-c3ccnc(N[C@H]4CCCNC4)n3)c(C)ccc12` [Example 147, (S)—N-(6-Methyl-5-((3-(2-(piperidin-3-ylamino)pyrimidin-4-yl)pyridin-2-yl)oxy)naphthalen-1-yl)ethenesulfonamide], the IC50 (Table 1) worked out at 0.139 µM. With `COCCCNc1cccc2c(Oc3ncccc3-c3ccnc(N[C@H]4CCCNC4)n3)c(C)ccc12` [Example 430, 4-[2-[[5-(3-Methoxypropylamino)-2-methyl-1-naphthyl]oxy]-3-pyridyl]-N-[(3S)-3-piperidyl]pyrimidin-2-amine hydrochloride], the IC50 (Table 2) came out at 0.275 µM. For the compound `Cc1ccc2c(NCc3ncsc3C)cccc2c1Oc1ncccc1-c1ccnc(N[C@H]2CCCNC2)n1` [Example 346, (S)-4-(2-((2-Methyl-5-(((5-methylthiazol-4-yl)methyl)amino)naphthalen-1-yl)oxy)pyridin-3-yl)-N-(piperidin-3-yl)pyrimidin-2-amine], under “Table 1”, the IC50 is 0.136 µM. Regarding `COc1cccc(CS(=O)(=O)Nc2c(F)ccc3c(Oc4ncccc4-c4ccnc(N[C@H]5CCCNC5)n4)c(C)ccc23)c1` [Example 429, (S)—N-(2-Fluoro-6-methyl-5-((3-(2-(piperidin-3-ylamino)pyrimidin-4-yl)pyridin-2-yl)oxy)naphthalen-1-yl)-1-(3-methoxyphenyl)methanesulfonamide hydrochloride], the IC50 (Table 2) is 0.005 µM. On to `Cc1ccc2c(NC(=O)[C@H]3C[C@@H]3F)cccc2c1Oc1ncccc1-c1ccnc(N[C@H]2CCCNC2)n1` [Example 235, (1R,2S)-2-Fluoro-N-(6-methyl-5-((3-(2-(((S)-piperidin-3-yl)amino)pyrimidin-4-yl)pyridin-2-yl)oxy)naphthalen-1-yl)cyclopropane-1-carboxamide], for which the IC50 (Table 1) came out at 0.145 µM.

`Cc1ccc2c(NS(=O)(=O)CC(C)C)c(F)ccc2c1Oc1ncccc1-c1ccnc(N[C@@H]2CNC[C@@H](F)C2)n1` (single isomer, unassigned) [Example 208]: under “Table 1”, the IC50 worked out at 0.0182 µM. The same measure, in the same setting: the result for `CCCS(=O)(=O)Nc1c(Cl)ccc2c(Oc3ncccc3-c3ccnc(N[C@H]4CCCNC4)n3)c(C)ccc12` [Example 370, (S)—N-(2-Chloro-6-methyl-5-((3-(2-(piperidin-3-ylamino)pyrimidin-4-yl)pyridin-2-yl)oxy)naphthalen-1-yl)propane-1-sulfonamide] reads 0.0276 µM. Still for that read-out and setting: the result for `Cc1ccc2c(NS(=O)(=O)CC(C)(C)C)cccc2c1Oc1ncccc1-c1ccnc(N[C@H]2CCCNC2)n1` [Example 139, (S)-2,2-Dimethyl-N-(6-methyl-5-((3-(2-(piperidin-3-ylamino)pyrimidin-4-yl)pyridin-2-yl)oxy)naphthalen-1-yl)propane-1-sulfonamide] reads 0.241 µM. Consider `Cc1ccc2c(NC[C@@H](O)C3CC3)cccc2c1Oc1ncccc1-c1ccnc(N[C@H]2CCCNC2)n1` (single isomer, unassigned) [Example 488, hydrochloride], for which the IC50 (Table 2) turned out to be 0.03 µM.

As to `COC(C)CS(=O)(=O)Nc1cccc2c(Oc3ncccc3-c3ccnc(N[C@H]4CCCNC4)n3)c(C)ccc12` (stereo partly drawn) [Example 138, 2-Methoxy-N-(6-methyl-5-((3-(2-((S)-piperidin-3-ylamino)pyrimidin-4-yl)pyridin-2-yl)oxy)naphthalen-1-yl)propane-1-sulfonamide], the IC50 (Table 1) is 0.388 µM.

Regarding `Cc1ccc2c(NS(=O)(=O)Cc3ccc(Cl)cc3)c(F)ccc2c1Oc1ncccc1-c1ccnc(N[C@H]2CCCNC2)n1` [Example 209, (S)-1-(4-Chlorophenyl)-N-(2-fluoro-6-methyl-5-((3-(2-(piperidin-3-ylamino)pyrimidin-4-yl)pyridin-2-yl)oxy)naphthalen-1-yl)methanesulfonamide], the IC50 (Table 1) is 0.00804 µM. The same measure, in the same setting: then `Cc1ccc2c(NS(=O)(=O)C3CCCCC3)c(F)ccc2c1Oc1ncccc1-c1ccnc(N[C@@H]2CNC[C@H](C)C2)n1` [Example 317, N-(2-Fluoro-6-methyl-5-((3-(2-(((3S,5R)-5-methylpiperidin-3-yl)amino)pyrimidin-4-yl)pyridin-2-yl)oxy)naphthalen-1-yl)cyclohexanesulfonamide], with 0.0176 µM. On the same count and under the same terms, then `Cc1ccc2c(NC(=O)[C@H]3CCC(F)(F)C3)cccc2c1Oc1ncccc1-c1ccnc(N[C@H]2CCCNC2)n1` (single isomer, unassigned) [Example 270], with 0.189 µM; and `Cc1ccc2c(NC(=O)[C@@H]3C[C@H]3C(F)F)cccc2c1Oc1ncccc1-c1ccnc(N[C@H]2CCCNC2)n1` [Example 293, (1R,2R)-2-(Difluoromethyl)-N-(6-methyl-5-((3-(2-(((S)-piperidin-3-yl)amino)pyrimidin-4-yl)pyridin-2-yl)oxy)naphthalen-1-yl)cyclopropane-1-carboxamide], with 0.0905 µM. With `Cc1ccc2c(NS(=O)(=O)c3cccc4c3ccn4C)c(F)ccc2c1Oc1ncccc1-c1ccnc(N[C@H]2CCCNC2)n1` [Example 458, N-[2-Fluoro-6-methyl-5-[[3-[2-[[(3S)-3-piperidyl]amino]pyrimidin-4-yl]-2-pyridyl]oxy]-1-naphthyl]-1-methyl-indole-4-sulfonamide], the IC50 (Table 2) was 0.019 µM.

Consider `Cc1ccc2c(NC[C@H](O)C3CC3)cccc2c1Oc1ncccc1-c1ccnc(N[C@H]2CCCNC2)n1` (single isomer, unassigned) [Example 489, hydrochloride], for which the IC50 (Table 2) was determined as 0.132 µM.

For the compound `Cc1ccc2c(NCC3CC3)cccc2c1Oc1ncccc1-c1ccnc(N[C@H]2CCCNC2)n1` [Example 223, (S)-4-(2-((5-((Cyclopropylmethyl)amino)-2-methylnaphthalen-1-yl)oxy)pyridin-3-yl)-N-(piperidin-3-yl)pyrimidin-2-amine], the IC50 (Table 1) came to 0.212 µM. Still for that read-out and setting: the result for `Cc1ccc2c(NC(=O)C3CC3)c(F)ccc2c1Oc1ncccc1-c1ccnc(N[C@@H]2CNC[C@H](C)C2)n1` [Example 310, N-(2-Fluoro-6-methyl-5-((3-(2-(((3S,5R)-5-methylpiperidin-3-yl)amino)pyrimidin-4-yl)pyridin-2-yl)oxy)naphthalen-1-yl)cyclopropanecarboxamide] reads 0.135 µM. For the compound `Cc1ccc2c(NC(=O)C3CCCCC3)cccc2c1Oc1ncccc1-c1ccnc(N[C@H]2CCCNC2)n1` [Example 190, (S)—N-(6-Methyl-5-((3-(2-(piperidin-3-ylamino)pyrimidin-4-yl)pyridin-2-yl)oxy)naphthalen-1-yl)cyclohexanecarboxamide], the IC50 (Table 1) was determined as 0.273 µM. Consider `Cc1ccc2c(NS(=O)(=O)Cc3ccccc3F)c(F)ccc2c1Oc1ncccc1-c1ccnc(N[C@H]2CNC[C@H](F)C2)n1` (single isomer, unassigned) [Example 463, hydrochloride], for which the IC50 (Table 2) was determined as 0.268 µM. Still for that read-out and setting: then `Cc1ccc2c(NS(=O)(=O)CC3CCC3)c(F)ccc2c1Oc1ncccc1-c1ccnc(N[C@H]2CCCNC2)n1` [Example 400, (S)-1-Cyclobutyl-N-(2-fluoro-6-methyl-5-((3-(2-(piperidin-3-ylamino)pyrimidin-4-yl)pyridin-2-yl)oxy)naphthalen-1-yl)methanesulfonamide hydrochloride], with 0.026 µM.
